Like-named read-outs stand apart in the source and are kept apart here.
Tests used:
Assay type in all cases: cell-based
[1] = Inhibition of natural killer activity, 51Cr release cytotoxicity assay; conditions: human, k562 cells, read-out: Spont. Release Target Cells Alone (K562)
Experimental: (§1) Compounds were tested for their effects on the ability of peripheral blood mononuclear cells to lyse NK-sensitive target cells, K562. NK activity was determined using ^51 Cr-labeled K562 erythromyeloid leukemia cells as targets, and normal peripheral blood mononuclear cells as effector cells, in a four hour cytotoxicity assay. Effector cells were isolated from fresh blood by Ficoll-Hypaque gradient centrifugation, and 100 μl of a 5×10^5 cell/well suspension were added to each well of a V-bottom microtiter plate. The compound 11a was diluted in RPMI 1640 medium containing 10% fetal calf serum and dispensed at 100 μl per well. Target cells (K562) were labeled for 30 minutes with 100 μCi of ^51 Cr, washed thoroughly and dispensed in a 20 μl volume at 10^4 cells/well. […] The microtiter plate was centrifuged at 50×g for 5 minutes and incubated in a humidified chamber with 5% CO2 at 37° C. After 4 hours, 100 μl were removed from each well and the radioactivity was measured with a LKB 1275 gamma counter. The percent specific lysis was calculated as follows:
(§2) % specific lysis=[(EXP-SR)/(TOTAL-B)]×100
(§3) where EXP (experimental value) was obtained using effector and target cells; SR (the spontaneous release) was obtained from target cells incubated with media alone; TOTAL release was obtained by hypotonic lysis in water; and B represents instrumental background. Means were calculated from quadruplicate wells and the standard deviations never exceeded 10%. Viability of the effector cells incubated with the test compound was determined by trypan blue exclusion.

[2] = tested on: K562 erythromyeloid leukemia cells (NK-sensitive target cells); experiment: as above; conditions: effector:target 50:1, 4 h
Experimental: as §1, §2, §3

[3] = tested on: human peripheral blood lymphocytes (PBL); experiment: Inhibition of proliferation of peripheral blood lymphocytes, 3H-thymidine incorporation; conditions: Lymphocyte
Experimental: The proliferation of human peripheral blood lymphocytes (PBL) in response to phytohemagglutinin (PHA, Well-come) or anti-CD3 monoclonal antibody (OKT-3, Ortho) was assessed by the incorporation of ^3 H-thymidine. Compound 11a was diluted in culture media to the desired concentrations, human PBL were added to a final concentration of 10^6 cells/ml, and then either PHA (Wellcome) or anti-CD3 (OKT3, Ortho) antibody (final concentration, […]) was added to initiate proliferation. The final volume per sample was 100 μl. The cells were incubated for 72 hours after stimulation, pulsed with 1 μCi ^3 H-thymidine per sample for 4 hours, harvested, and counted in a scintillation counter. […] Because cell viability was unaffected by the presence of 11a (see supra), the inhibition apparently was not due to cytotoxic effects.

[4] = tested on: Chinese hamster ovary (CHO) cells; experiment: CHO cell proliferation, 3H-thymidine incorporation
Experimental: Non-confluent CHO cells were allowed to proliferate for 4 hours in a 96-well plate at a volume of 50 μl per well in the absence or presence of compound 11a at a concentration of 1.8 mM. The cells were pulsed with 0.5 μCi of ^3 H-thymidine per sample for 4 hours, harvested, and the amount of incorporated ^3 H-thymidine was determined by scintillation counting. The CHO cells allowed to proliferate in the absence of added compound yielded a value of 57025 (±7530) CPM. The value for the sample grown in the presence of 11a was 52549 (±6272) CPM.

[5] = tested on: human peripheral blood lymphocytes (PBL); experiment: Inhibition of proliferation of peripheral blood lymphocytes, 3H-thymidine incorporation; conditions: without stimulant, concentration ranges used in the proliferation assay

`COc1ccc(C(=O)O)c2c1CC1(CCCCC1)O2` [Compound 11a, 7-carboxy-4-methoxyspiro[benzofuran-2(3H)-cyclohexane]] gave a % spontaneous 51Cr release of K562 target cells alone at 4 h, 400 µM ([1]; 0.4 mM) of 5%, a % spontaneous 51Cr release of K562 target cells alone at 4 h, 800 µM ([1]; 0.8 mM) of 5% and a % spontaneous 51Cr release of K562 target cells alone at 4 h, 1600 µM ([1]; 1.6 mM) of 5%. The % spontaneous 51Cr release of K562 target cells alone at 4 h, 3200 µM ([1]; 3.2 mM) was 5%, the % spontaneous 51Cr release of K562 target cells alone at 4 h, 6400 µM ([1]; 6.4 mM) was 23% and the “% Specific Lysis” value ([2]; 0.4 mM) was 7%. For the same compound, the “% Specific Lysis” value ([2]; 0.8 mM) was 4%, the “% Specific Lysis” value ([2]; 1.6 mM) was 1% and the “% Specific Lysis” value ([2]; 3.2 mM) was -1%. The “% Specific Lysis” value ([2]; 6.4 mM) was 18%, the IC50 ([3]; PHA stimulated (FIG. 4), read-out: Half-maximal inhibition of PBL proliferation) was ~500 µM and the IC50 ([3]; Table IX, PHA stimulation, 72 h, read-out: IP50 PHA-stimulated PBL) was 400 µM. For the same compound, the IC50 ([3]; Table IX, anti-CD3 (OKT-3) stimulation, 72 h, read-out: IP50 OKT-3-stimulated PBL) was 500 µM, the “inhibition of CHO cell proliferation” value [4] was “no inhibition” and the “incorporated 3H-thymidine” value ([4]; 1.8 mM, CHO cells) was 52549 (±6272) CPM. The “PBL viability by trypan blue exclusion” value [5] was “viable”.
